Where a name gives a salt, the structure may show the parent alone.
Test system: NIH-3T3/Gli reporter cells
Test: Evaluation of compound: Shh-N-induced luciferase activity in NIH-3T3/Gli reporter cells (Smo inhibitory action)
Type: cell-based
Details: 48 hr; for inhibition at 1 µM: NIH3T3, 1 μM compound, mouse Shh-N end fragment supernatant, read-out: inhibition rate (%) at 1 μM; for IC50: NIH3T3, mouse Shh-N end fragment supernatant, read-out: IC50 value (compound concentration necessary for achieving 50% of the maximum value of inhibition rate)
Experimental: HEK293 cells were grown in D-MEM medium (Invitrogen) containing 10% fetal bovine serum in a 10 cm dish and pcDNA3.1/mShh-N was introduced into the cells using FuGENE6 (Roche Applied Science). Thereafter, the HEK293 cells were cultured in a carbon dioxide gas incubator at 37° C. for 24 hours, and the medium was exchanged with D-MEM medium (Invitrogen) containing 2% fetal bovine serum. After culturing for 48 hr, a culture supernatant containing recombinant type mouse Shh-N end fragment was obtained by filtration using a filter ([…]).
Using D-MEM (Invitrogen) containing 10% fetal bovine serum, expression plasmid pcDNA3.1 and Gli reporter plasmid (pGL3/δ-cry promoter, 8×Gli binding site) produced by the method of Experimental Example 1 were introduced into NIH-3T3 cells grown in a 10 cm dish by the use of FuGENE6 (Roche Applied Science).
After culture for 24 hr, the cells were recovered, suspended in D-MEM medium containing 10% fetal bovine serum and supplemented with Geneticin (Life Technologies Oriental, Inc.) to a final concentration of 500 μg/ml, diluted to 10^4 cells/ml, plated on a 96 well plate, and cultured in a carbon dioxide gas incubator at 37° C. to give Geneticin resistant transformed cell line.
The obtained transformed cell line was cultured in a 96 well plate, mouse Shh-N end fragment obtained in Experimental Example 3 was added, and NIH-3T3/Gli reporter cell, which is a cell line capable of induction of luciferase expression, was selected.
NIH-3T3/Gli reporter cells cultured in D-MEM (Invitrogen) containing 10% fetal bovine serum were plated in a 96 well white plate at 1×10^4 cells/well, and cultured overnight in a carbon dioxide gas incubator at 37° C. The medium was removed, a compound (50 μl) and culture supernatant of mouse Shh-N end fragment-expressing HEK293 (D-MEM medium containing 2% fetal bovine serum, 50 μl) were added, and the cells were cultured for 48 hr in a carbon dioxide gas incubator at 37° C. Bright-Glo (Promega, 50 μl) was added, and the mixture was stirred, after which luciferase activity was measured by EnVision (PerkinElmer). The inhibition rate was calculated based on the luciferase activity of the control without addition of the compound as 100. The concentration of the compound and the inhibition rate were analyzed by PRISM3.00 (software of GraphPad), based on which the IC50 value (compound concentration necessary for achieving 50% of the maximum value of inhibition rate) of the compound was calculated.

SMILES	inhibition at 1 µM	IC50
COc1c(C(=O)N2CCCCC2CN)sc2c1c(=O)n(CC(=O)c1ccccc1)c1ccccc21 (centres unmarked) [Example 73, 2-{[2-(aminomethyl)piperidin-1-yl]carbonyl}-3-methoxy-5-(2-oxo-2-phenylethyl)thieno[3,2-c]quinolin-4(5H)-one hydrochloride]	100%	≤ 1 µM
COc1c(C(=O)NCC2CCCCN2)sc2c1c(=O)n(CC(=O)c1ccccc1)c1ccccc21 (centres unmarked) [Example 74, 3-methoxy-4-oxo-5-(2-oxo-2-phenylethyl)-N-(piperidin-2-ylmethyl)-4,5-dihydrothieno[3,2-c]quinoline-2-carboxamide hydrochloride]	100%	≤ 1 µM
COc1c(C(=O)NC(C)CN(C)C)n(C)c2c1c(=O)n(CC(=O)c1ccccc1)c1ccccc21 (centres unmarked) [Example 92, N-[2-(dimethylamino)-1-methylethyl]-3-methoxy-1-methyl-4-oxo-5-(2-oxo-2-phenylethyl)-4,5-dihydro-1H-pyrrolo[3,2-c]quinoline-2-carboxamide]	100%	≤ 1 µM
COc1c(C(=O)NCC2CCCN(CCO)C2)n(C)c2c1c(=O)n(CC(=O)c1ccccc1)c1ccccc21 (centres unmarked) [Example 102, N-{[1-(2-hydroxyethyl)piperidin-3-yl]methyl}-3-methoxy-1-methyl-4-oxo-5-(2-oxo-2-phenylethyl)-4,5-dihydro-1H-pyrrolo[3,2-c]quinoline-2-carboxamide]	80%	≤ 1 µM
COc1c(C(=O)NCC(C)(C)CO)n(C)c2c1c(=O)n(CC(=O)c1ccccc1)c1ccccc21 [Example 109, N-(3-hydroxy-2,2-dimethylpropyl)-3-methoxy-1-methyl-4-oxo-5-(2-oxo-2-phenylethyl)-4,5-dihydro-1H-pyrrolo[3,2-c]quinoline-2-carboxamide]	100%	≤ 1 µM
COc1c(C(=O)N(C)CCNC(C)C)sc2c1c(=O)n(CC(=O)c1ccccc1)c1ccccc21 [Example 115, 3-methoxy-N-methyl-N-{2-[(1-methylethyl)amino]ethyl}-4-oxo-5-(2-oxo-2-phenylethyl)-4,5-dihydrothieno[3,2-c]quinoline-2-carboxamide hydrochloride]	100%	≤ 1 µM
COc1c(C(=O)N[C@H]2CC[C@H](O)CC2)n(C)c2c1c(=O)n(CC(=O)c1ccccc1)c1ccccc21 [Example 118, N-(trans-4-hydroxycyclohexyl)-3-methoxy-1-methyl-4-oxo-5-(2-oxo-2-phenylethyl)-4,5-dihydro-1H-pyrrolo[3,2-c]quinoline-2-carboxamide]	100%	
CCc1cc2c(c(OC)c(C(=O)NC3CCN(C(=O)CO)CC3)n2C)c(=O)n1CC(=O)c1ccccc1 [Example 131, 6-ethyl-N-[1-(hydroxyacetyl)piperidin-4-yl]-3-methoxy-1-methyl-4-oxo-5-(2-oxo-2-phenylethyl)-4,5-dihydro-1H-pyrrolo[3,2-c]pyridine-2-carboxamide]	100%	
CCOc1c(C(=O)NCC(C)(C)O)n(C)c2cc(C)n(CC(=O)c3ccccc3)c(=O)c12 [Example 132, 3-ethoxy-N-(2-hydroxy-2-methylpropyl)-1,6-dimethyl-4-oxo-5-(2-oxo-2-phenylethyl)-4,5-dihydro-1H-pyrrolo[3,2-c]pyridine-2-carboxamide]	100%	
COc1c(C(=O)NC2CCN(c3ccncc3)CC2)n(C)c2cc(C)n(CC(=O)c3ccccc3)c(=O)c12 [Example 135, 3-methoxy-1,6-dimethyl-4-oxo-5-(2-oxo-2-phenylethyl)-N-(1-pyridin-4-ylpiperidin-4-yl)-4,5-dihydro-1H-pyrrolo[3,2-c]pyridine-2-carboxamide]	100%	
CCOc1c(C(=O)NC2CCN(C(=O)CO)CC2)n(C)c2cc(C)n(CC(=O)c3ccccc3)c(=O)c12 [Example 136, 3-ethoxy-N-[1-(hydroxyacetyl)piperidin-4-yl]-1,6-dimethyl-4-oxo-5-(2-oxo-2-phenylethyl)-4,5-dihydro-1H-pyrrolo[3,2-c]pyridine-2-carboxamide]	100%	
CCCOc1c(C(=O)NC2CCN(C(=O)CO)CC2)n(C)c2cc(C)n(CC(=O)c3ccccc3)c(=O)c12 [Example 137, N-[1-(hydroxyacetyl)piperidin-4-yl]-1,6-dimethyl-4-oxo-5-(2-oxo-2-phenylethyl)-3-propoxy-4,5-dihydro-1H-pyrrolo[3,2-c]pyridine-2-carboxamide]	100%	
CCOc1c(C(=O)NC2CCN(CCO)CC2)n(C)c2cc(C)n(CC(=O)c3ccccc3)c(=O)c12 [Example 138, 3-ethoxy-N-[1-(2-hydroxyethyl)piperidin-4-yl]-1,6-dimethyl-4-oxo-5-(2-oxo-2-phenylethyl)-4,5-dihydro-1H-pyrrolo[3,2-c]pyridine-2-carboxamide]	100%	
CCCc1cc2c(c(OCC)c(C(=O)NC3CCN(C(=O)CO)CC3)n2C)c(=O)n1CC(=O)c1ccccc1 [Example 141, 3-ethoxy-N-[1-(hydroxyacetyl)piperidin-4-yl]-1-methyl-4-oxo-5-(2-oxo-2-phenylethyl)-6-propyl-4,5-dihydro-1H-pyrrolo[3,2-c]pyridine-2-carboxamide]	100%	
CCc1cc2c(c(OCCF)c(C(=O)NC3CCN(C(=O)CO)CC3)n2C)c(=O)n1CC(=O)c1ccccc1 [Example 142, 6-ethyl-3-(2-fluoroethoxy)-N-[1-(hydroxyacetyl)piperidin-4-yl]-1-methyl-4-oxo-5-(2-oxo-2-phenylethyl)-4,5-dihydro-1H-pyrrolo[3,2-c]pyridine-2-carboxamide]	100%	
CCCOc1c(C(=O)NC2CCN(C(=O)CO)CC2)n(C)c2cc(CC)n(CC(=O)c3ccccc3)c(=O)c12 [Example 510, 6-ethyl-N-[1-(hydroxyacetyl)piperidin-4-yl]-1-methyl-4-oxo-5-(2-oxo-2-phenylethyl)-3-propoxy-4,5-dihydro-1H-pyrrolo[3,2-c]pyridine-2-carboxamide]	100%	
COc1c(C(=O)NC2CCN(C(=O)CCO)CC2)n(C)c2c1c(=O)n(CC(=O)c1ccccc1)c1ccccc21 [Example 517, N-[1-(3-hydroxypropanoyl)piperidin-4-yl]-3-methoxy-1-methyl-4-oxo-5-(2-oxo-2-phenylethyl)-4,5-dihydro-1H-pyrrolo[3,2-c]quinoline-2-carboxamide]	100%	
CCc1cc2c(c(OC(C)C)c(C(=O)NC3CCN(C(=O)CO)CC3)n2C)c(=O)n1CC(=O)c1ccccc1 [Example 522, 6-ethyl-N-[1-(hydroxyacetyl)piperidin-4-yl]-1-methyl-3-(1-methylethoxy)-4-oxo-5-(2-oxo-2-phenylethyl)-4,5-dihydro-1H-pyrrolo[3,2-c]pyridine-2-carboxamide]	100%	
COc1c(C(=O)NC2CCN(C(=O)CO)CC2)sc2c1c(=O)n(CC(=O)c1ccccc1)c1ccc(F)cc21 [Example 562, 8-fluoro-N-[1-(hydroxyacetyl)piperidin-4-yl]-3-methoxy-4-oxo-5-(2-oxo-2-phenylethyl)-4,5-dihydrothieno[3,2-c]quinoline-2-carboxamide]	100%	
COc1c(C(=O)NC2CCN(c3ccncc3)CC2)n(C)c2c1c(=O)n(CC(=O)c1ccccc1)c1ccccc21 [Example 563, 3-methoxy-1-methyl-4-oxo-5-(2-oxo-2-phenylethyl)-N-(1-pyridin-4-ylpiperidin-4-yl)-4,5-dihydro-1H-pyrrolo[3,2-c]quinoline-2-carboxamide]	100%	
COc1c(C(=O)NC2CCN(c3ccncn3)CC2)n(C)c2c1c(=O)n(CC(=O)c1ccccc1)c1ccccc21 [Example 583, 3-methoxy-1-methyl-4-oxo-5-(2-oxo-2-phenylethyl)-N-(1-pyrimidin-4-ylpiperidin-4-yl)-4,5-dihydro-1H-pyrrolo[3,2-c]quinoline-2-carboxamide]	100%	
COc1c(C(=O)NC2CCN(C(=O)CO)CC2)n(C)c2c1c(=O)n(CC(=O)c1ccccc1)c1ccc(F)cc21 [Example 584, 8-fluoro-N-[1-(hydroxyacetyl)piperidin-4-yl]-3-methoxy-1-methyl-4-oxo-5-(2-oxo-2-phenylethyl)-4,5-dihydro-1H-pyrrolo[3,2-c]quinoline-2-carboxamide]	100%	
COc1c(C(=O)NC2CCN(C(=O)CO)CC2)n(C)c2c1c(=O)n(CC(=O)c1ccccc1)c1ncccc21 [Example 643, N-[1-(hydroxyacetyl)piperidin-4-yl]-3-methoxy-1-methyl-4-oxo-5-(2-oxo-2-phenylethyl)-4,5-dihydro-1H-pyrrolo[3,2-c][1,8]naphthyridine-2-carboxamide]	100%	
